This is an account of results in ChEMBL document CHEMBL5096184, “Structure activity relationship in β-carboline derived anti-malarial agents” (Eur J Med Chem, 2021).

Each structure is given as a SMILES string. Bounds are passed on as bounds.

Common to all, as to assay type: functional, organism-based
Assay [1] concerns Plasmodium falciparum. As to the kind of experiment: Antimalarial activity against Plasmodium falciparum K1.
For assay [2], the system named is Plasmodium falciparum. As to the kind of experiment: Antimalarial activity against multi drug resistant Plasmodium falciparum W2.
Assay [3] has as its system Plasmodium falciparum. As to the kind of experiment: Antimalarial activity against Plasmodium falciparum W2 (MRA-157) incubated for 72 hrs.
Assay [4] relates to Plasmodium falciparum. As to the kind of experiment: Antimalarial activity against chloroquine-resistant Plasmodium falciparum.
Another assay deals with Plasmodium berghei. As to the kind of experiment: Antiplasmodial activity against Plasmodium berghei assessed as reduction in parasitemia.
Assay [5] relates to Plasmodium falciparum. As to the kind of experiment: Antimalarial activity against chloroquine sensitive Plasmodium falciparum 3D7.
The subject of assay [6] is Plasmodium falciparum. As to the kind of experiment: Antiplasmodial activity against chloroquine sensitive Plasmodium falciparum W2/Indochina.
For assay [7], the system named is Plasmodium falciparum. Description: Antiplasmodial activity against chloroquine sensitive Plasmodium falciparum FCA 20/Ghana.
Assay [8] concerns Plasmodium falciparum. As to the kind of experiment: Antimalarial activity against chloroquine sensitive Plasmodium falciparum K1.
Setting [9] is: Plasmodium falciparum, W2/Indochina.
Setting [10] is: Plasmodium falciparum, FCA 20/Ghana.

`OCCNc1nccc2c1[nH]c1ccccc12` returned an IC50 in the assay on Plasmodium falciparum [1] of 2.4 µM.

In turn, `COc1ccc(C2NCCc3c2[nH]c2ccccc32)cc1` (stereo unspecified) had an IC50 in the assay with Plasmodium falciparum [2] of 0.7 µM.

With `c1ccc(C2NCCc3c2[nH]c2ccccc32)cc1` (stereo unspecified), the IC50 in the assay with Plasmodium falciparum [2] amounted to 8.1 µM.

In the assay on Plasmodium falciparum [3], `COc1cccc(C2NCCc3c2[nH]c2ccccc32)c1` (stereo unspecified) registered a 50% inhibitory concentration (IC50) of 25.1 µM.

In turn, `c1ccc2c(-c3nccc4c3[nH]c3ccccc34)c[nH]c2c1` showed an IC50 with Plasmodium falciparum [4] of 14.4 µM.

Regarding `O=[N+]([O-])c1cccc(C2NCCc3c2[nH]c2ccccc32)c1` (stereo unspecified), in the assay on Plasmodium falciparum [3], it took 13.6 µM to reach half-maximal inhibition (IC50).

On to `COc1ccc2[nH]cc(-c3nccc4c3[nH]c3ccc(OC)cc34)c2c1`, for which the IC50 in the assay on Plasmodium falciparum [4] is 4.7 µM.

Consider `COc1ccc(C2NCCc3c2[nH]c2ccccc32)cc1OC` (stereo unspecified), for which the IC50 in the assay on Plasmodium falciparum [3] is above 81.1 µM.

With `COC(=O)[C@@H]1Cc2c([nH]c3ccccc23)[C@@H](c2ccc3c(c2)OCO3)N1`, the 50% inhibitory concentration (IC50) in the assay on Plasmodium berghei was below 5 µg/mL.

With `COC(=O)[C@@H]1Cc2c([nH]c3ccccc23)[C@H](c2cccs2)N1`, the IC50 in the assay on Plasmodium berghei was below 5 µg/mL.

`CN(C)CCCNc1nccc2c1[nH]c1ccccc12` had an IC50 in the assay on Plasmodium falciparum [1] of 0.45 µM.

`CCN(CC)C1CCN(c2nccc3c2[nH]c2ccccc23)CC1` registered an IC50 with Plasmodium falciparum [1] of 0.41 µM.

For the molecule `CCN(CC)CCCNc1nccc2c1[nH]c1ccccc12`, in the assay with Plasmodium falciparum [1], the IC50 is 0.64 µM.

`c1ccc2c(c1)[nH]c1c(N3CCOCC3)nccc12` yielded an IC50 in the assay on Plasmodium falciparum [1] of 4.59 µM.

As for `c1ccc2c(c1)[nH]c1c(N3CCC(N4CCCCCC4)CC3)nccc12`, in the assay on Plasmodium falciparum [1], 0.35 µM corresponded to half-maximal inhibition (IC50).

With `c1ccc2c(c1)[nH]c1c(N3CCCCC3)nccc12`, half-maximal inhibition in the assay with Plasmodium falciparum [1] (IC50) required 1.2 µM.

As to `COC(=O)[C@@H]1Cc2c([nH]c3ccccc23)[C@H](c2cccnc2)N1`, the IC50 in the assay with Plasmodium berghei is below 5 µg/mL.

`c1ccc2c(c1)[nH]c1c(N3CCC(N4CCCC4)CC3)nccc12` returned an IC50 in the assay with Plasmodium falciparum [1] of 0.45 µM.

In the assay on Plasmodium falciparum [1], `c1ccc2c(c1)[nH]c1c(N3CCC(N4CCCCC4)CC3)nccc12` gave an IC50 of 0.39 µM.

Consider `CCCCCC[C@H]1N[C@H](C(=O)OC)Cc2c1[nH]c1ccccc21`, for which the IC50 in the assay on Plasmodium berghei was below 5 µg/mL.

In the assay on Plasmodium falciparum [1], `OC1CCCN(c2nccc3c2[nH]c2ccccc23)C1` (stereo unspecified) yielded an IC50 of 3.4 µM.

On to `CCCCCC[C@@H]1N[C@H](C(=O)OC)Cc2c1[nH]c1ccccc21`, for which the IC50 in the assay on Plasmodium berghei is below 5 µg/mL.

With `COC(=O)[C@@H]1Cc2c([nH]c3ccccc23)[C@@H](c2cccs2)N1`, the IC50 in the assay on Plasmodium berghei was below 5 µg/mL.

As to `CN1CCN(c2nccc3c2[nH]c2ccccc23)CC1`, the midpoint of inhibition in the assay with Plasmodium falciparum [1], the IC50, lay at 0.62 µM.

Consider `COC(=O)[C@@H]1Cc2c([nH]c3ccccc23)[C@@H](c2cccnc2)N1`, for which the IC50 with Plasmodium berghei is below 5 µg/mL.

`COC(=O)[C@@H]1Cc2c([nH]c3ccccc23)[C@H](c2ccc3c(c2)OCO3)N1`: the IC50 in the assay on Plasmodium berghei is below 5 µg/mL.

As for `CC1NCCc2c1[nH]c1ccc(Cl)cc21` (stereo unspecified), the midpoint of inhibition with Plasmodium falciparum [3], the IC50, lay at 4.2 µM.

Regarding `Clc1ccc(C2NCCc3c2[nH]c2ccccc32)cc1` (stereo unspecified), the IC50 in the assay on Plasmodium falciparum [3] stood at 4.8 µM.

Turning to `COC(=O)c1cc2c3c(c1)c1ccccc1n3C=C(C)OC2`, the IC50 in the assay with Plasmodium falciparum [5] was above 5 µM.

`Cc1ccc(C)c(C2NCCc3c2[nH]c2ccccc32)c1` (stereo unspecified): half-maximal inhibition in the assay with Plasmodium falciparum [2] (IC50) was put at 28.9 µM.

In the assay on Plasmodium falciparum [5], `C=C(C)CC1OC(C)=Cn2c3ccccc3c3cc(C(=O)OC)cc1c32` (stereo unspecified) showed an IC50 above 5 µM.

Regarding `CC[C@H]1CN2CCc3c([nH]c4ccccc34)[C@@H]2C[C@@H]1C[C@H]1NCCc2c1[nH]c1ccccc21`, the concentration for half-maximal inhibition (IC50) is 0.492 µM in the assay on Plasmodium falciparum [6] (setting [9]) and 0.118 µM with Plasmodium falciparum [7] (setting [10]).

In the assay on Plasmodium falciparum [1], `CCN(CC)CCCNc1nccc2c1[nH]c1ccc(Cl)cc12` registered an IC50 of 1.08 µM.

Turning to `CC1NCCc2c1[nH]c1ccc(Br)cc21` (stereo unspecified), half-maximal inhibition in the assay with Plasmodium falciparum [3] (IC50) required 5.7 µM.

For the molecule `Cc1ccc(C2NCCc3c2[nH]c2ccccc32)c(C)c1` (stereo unspecified), in the assay with Plasmodium falciparum [2], the IC50 was 25.3 µM.

For the molecule `CCN(CC)CCCNc1nccc2c1[nH]c1ccc(F)cc12`, the midpoint of inhibition in the assay on Plasmodium falciparum [1], the IC50, lay at 0.36 µM.

In turn, `Oc1ccc2[nH]cc(-c3nccc4c3[nH]c3ccc(O)cc34)c2c1` registered a concentration for half-maximal inhibition (IC50) with Plasmodium falciparum [4] of 11 µM.

Regarding `C=C[C@H]1CN2CCc3c([nH]c4ccc(O)cc34)[C@@H]2C[C@@H]1CC1c2[nH]c3ccccc3c2CCN1C` (stereo partly specified), the concentration for half-maximal inhibition (IC50) in the assay on Plasmodium falciparum [6] (setting [9]) is 0.16 µM; in the assay with Plasmodium falciparum [7] (setting [10]), 0.48 µM.

`COC(=O)c1cc2c3c(c1)c1cc(Cl)ccc1n3C=C(C)OC2`: the IC50 in the assay with Plasmodium falciparum [8] was above 2.45 µM; with Plasmodium falciparum [5] it was above 1.78 µM.

With `Cc1ccc(C2NCCc3c2[nH]c2ccccc32)cc1` (stereo unspecified), the IC50 with Plasmodium falciparum [2] was determined as 7.6 µM.

Consider `COC(=O)C1Cc2c([nH]c3ccccc23)C(c2c[nH]c3ccccc23)=N1` (stereo unspecified), for which the concentration for half-maximal inhibition (IC50) in the assay on Plasmodium falciparum [4] is above 29 µM.

Turning to `COC(=O)c1cc2c3c(c1)c1cc(Br)ccc1n3C=C(C)OC2`, in the assay with Plasmodium falciparum [5], the IC50 was above 5 µM.

In the assay on Plasmodium falciparum [4], `c1ccc2c(C3NCCc4c3[nH]c3ccccc43)c[nH]c2c1` (stereo unspecified) had an IC50 of 5.1 µM.

In the assay with Plasmodium falciparum [4], `O=C(O)c1cc2c([nH]c3ccccc32)c(-c2c[nH]c3ccccc23)n1` displayed an IC50 above 3.1 µM.

Molecule `Brc1ccc(C2NCCc3c2[nH]c2ccccc32)cc1` (stereo unspecified) yielded an IC50 in the assay on Plasmodium falciparum [3] of 6.9 µM.

`COc1ccc2[nH]cc(C3NCCc4c3[nH]c3ccc(OC)cc43)c2c1` (stereo unspecified) returned an IC50 with Plasmodium falciparum [4] of 8 µM.

Take `C/C=C/CC1OC(C)=Cn2c3ccccc3c3cc(C(=O)OC)cc1c32` (stereo unspecified): the IC50 in the assay on Plasmodium falciparum [5] was above 5 µM.

For the molecule `Clc1ccc2[nH]c3c(N4CCC(N5CCCC5)CC4)nccc3c2c1`, the IC50 with Plasmodium falciparum [1] turned out to be 0.93 µM.

Consider `Clc1ccc2[nH]c3c(N4CCC(N5CCCCC5)CC4)nccc3c2c1`, for which, in the assay on Plasmodium falciparum [1], the IC50 turned out to be 10.2 µM.

Consider `C=C(C#N)C1OC(C)=Cn2c3ccccc3c3cc(C(=O)OC)cc1c32` (stereo unspecified), for which the 50% inhibitory concentration (IC50) in the assay with Plasmodium falciparum [5] is above 5 µM.

With `CN1CCc2c3n(c4ccccc24)C(O)C[C@H](C2=CCOC2=O)C[C@@H]31` (stereo partly specified), the values for the IC50 with Plasmodium falciparum [7] and in the assay on Plasmodium falciparum [7] (setting [10]) were 25.9 µM and 17 µM, respectively.

`COC(=O)c1cc2c([nH]c3ccccc32)c(-c2c[nH]c3ccccc23)n1`: the IC50 with Plasmodium falciparum [4] is above 29 µM.

For the molecule `Cc1cccc(C2NCCc3c2[nH]c2ccccc32)c1` (stereo unspecified), inhibition with Plasmodium falciparum [2] was half-maximal at 38.1 µM (IC50).

`CN(C)c1ccc(C2NCCc3c2[nH]c2ccccc32)cc1` (stereo unspecified) came in with a half-inhibitory concentration (IC50) in the assay with Plasmodium falciparum [3] of 3.9 µM.

Turning to `COc1cc(C2NCCc3c2[nH]c2ccccc32)c([N+](=O)[O-])cc1OC` (stereo unspecified), the IC50 with Plasmodium falciparum [3] worked out at 11.3 µM.

The molecule `CCN(CC)CCC(C)Nc1nccc2c1[nH]c1ccc(Cl)cc12` (stereo unspecified) yielded an IC50 in the assay with Plasmodium falciparum [1] of 0.24 µM.

With `COc1ccc(OC)c(C2NCCc3c2[nH]c2ccccc32)c1` (stereo unspecified), the IC50 in the assay on Plasmodium falciparum [3] came to 29.2 µM.

In the assay on Plasmodium falciparum [3], `O=[N+]([O-])c1ccccc1C1NCCc2c1[nH]c1ccccc21` (stereo unspecified) came in with a 50% inhibitory concentration (IC50) of 47.7 µM.

Consider `O=[N+]([O-])c1ccc(C2NCCc3c2[nH]c2ccccc32)cc1` (stereo unspecified), for which the IC50 in the assay on Plasmodium falciparum [3] stood at 1.7 µM.

Turning to `C=CCC1OC(C)=Cn2c3ccccc3c3cc(C(=O)OC)cc1c32` (stereo unspecified), the IC50 in the assay on Plasmodium falciparum [8] and in the assay with Plasmodium falciparum [5] was above 5 µM each time.

For `Cc1ccccc1C1NCCc2c1[nH]c1ccccc21` (stereo unspecified), the IC50 in the assay with Plasmodium falciparum [2] was 15.2 µM.

With `CCN(CC)CCC(C)Nc1nccc2c1[nH]c1ccc(F)cc12` (stereo unspecified), half-maximal inhibition in the assay on Plasmodium falciparum [1] (IC50) required 1.2 µM.

`COC(=O)C1Cc2c([nH]c3ccccc23)C(c2c[nH]c3ccccc23)N1` (stereo unspecified) had a concentration for half-maximal inhibition (IC50) in the assay on Plasmodium falciparum [4] of 13.6 µM.

With `CCN(CC)CCC(C)Nc1nccc2c1[nH]c1ccccc12` (stereo unspecified), the IC50 with Plasmodium falciparum [1] came out at 0.42 µM.

As to `FC(F)(F)c1ccc(C2NCCc3c2[nH]c2ccccc32)cc1` (stereo unspecified), the IC50 with Plasmodium falciparum [3] amounted to 12.6 µM.

Molecule `CCN(CC)C1CCN(c2nccc3c2[nH]c2ccc(Cl)cc23)CC1` displayed an IC50 in the assay on Plasmodium falciparum [1] of 1.6 µM.

As to `Fc1ccc(C2NCCc3c2[nH]c2ccccc32)cc1` (stereo unspecified), inhibition in the assay with Plasmodium falciparum [3] was half-maximal at 1.1 µM (IC50).

The molecule `N#Cc1ccc(C2NCCc3c2[nH]c2ccccc32)cc1` (stereo unspecified) yielded an IC50 in the assay with Plasmodium falciparum [3] of 1.1 µM.

For `CC1C2=CN3CCc4c([nH]c5ccc(O)cc45)C3CC2CC2C3C(CCN2C)c2ccccc2N13` (stereo in doubt; 33), the IC50 in the assay on Plasmodium falciparum [6] worked out at 12.7 µM; in the assay with Plasmodium falciparum [7], 9.55 µM.

`CC1NCCc2c1[nH]c1ccccc21` (stereo unspecified) [TETRAHYDROHARMAN] displayed an IC50 in the assay on Plasmodium falciparum [2] of 1.4 µM.
